US5260451A, “Substituted pyrrole compounds and use thereof in pharmaceutical compositions” (priority 1989, dated 1993)

What was measured:
Format in all cases: cell-based
5-lipoxygenase [1] = target: T1, 5-lipoxygenase (Bos taurus, UniProt F1MQ78); assay: inhibition of 5-lipoxygenase (LTB4 formed by calcium-ionophore stimulated bovine granulocytes)
T1 construct: The source for 5-lipoxygenase were bovine granulocytes; endogenous in cells; host or cells: granulocytes isolated from EDTA-anticoagulated bovine blood
T1 sequence (F1MQ78 1-674): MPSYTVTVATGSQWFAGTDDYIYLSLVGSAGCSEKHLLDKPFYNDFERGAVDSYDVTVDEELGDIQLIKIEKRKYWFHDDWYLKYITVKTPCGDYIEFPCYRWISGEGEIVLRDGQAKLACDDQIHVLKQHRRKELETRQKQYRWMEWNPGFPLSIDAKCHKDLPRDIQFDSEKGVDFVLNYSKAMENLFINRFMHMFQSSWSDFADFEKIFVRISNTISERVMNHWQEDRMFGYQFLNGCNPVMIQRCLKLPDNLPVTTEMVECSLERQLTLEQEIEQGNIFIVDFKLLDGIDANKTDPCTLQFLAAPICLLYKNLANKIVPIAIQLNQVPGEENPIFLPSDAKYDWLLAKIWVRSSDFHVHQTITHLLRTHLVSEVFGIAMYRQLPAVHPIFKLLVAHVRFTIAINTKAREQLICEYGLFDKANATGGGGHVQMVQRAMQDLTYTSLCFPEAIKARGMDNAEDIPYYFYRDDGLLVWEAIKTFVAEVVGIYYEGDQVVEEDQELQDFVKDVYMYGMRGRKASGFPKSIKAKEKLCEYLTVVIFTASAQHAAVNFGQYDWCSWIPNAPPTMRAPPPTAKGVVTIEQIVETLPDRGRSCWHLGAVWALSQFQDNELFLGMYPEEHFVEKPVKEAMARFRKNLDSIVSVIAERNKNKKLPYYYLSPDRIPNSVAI
Method: The effectiveness of the compounds of the invention can be determined by means of the inhibition of 5-lipoxygenase or of cyclo-oxygenase. The research was carried out as follows: The source for 5-lipoxygenase were bovine granulocytes which can form leucotrienes just as human granulocytes do. By stimulation with calcium-ionophore (see BIOCHEM. BIOPHYS. ACTA 1984, 795, pp 499-503), mainly LTC4 (leucotriene C4) and LTB4 (leucotriene B4) are formed from endogenous arachidonic acid. The isolation of the granulocytes and the implementation of the enzyme reaction are conventional (see BIOCHEM. BIOPHYS. ACTA 1984, 795 pp 499-503). The blood protected against clotting by EDTA first is centrifuged for that purposed and the thrombotic excess is removed. Following lysis of the erythrocytes with water the lymphocytes and monocytes are separated from the granulocytes by means of a Ficoll gradient. The granulocytes are set to a specific cell number. The enzyme reaction is then begun in the presence or absence of the test substances following the addition of Ca^2+ with calcium ionophore. The synthesis of the leucotrienes is stopped after 5 minutes by adding a mixture of methanol and acetonitrile containing PGB2 as the internal standard and NDGA as the anti-oxidant. Next the samples are diluted in water and processed in the manner described in J. CHROMATOGR. […], 378, pp 208-214. LTB4 is measured at the absorption maximum at 270 nm. The arachidonic acid metabolites are observed present in this research in approximately quantitative manner. Tables 1 and 2 list the test results for the compounds of the invention, The test substances were at concentrations of 10 μM.

cyclo-oxygenase = target: T2, cyclo-oxygenase (Bos taurus, UniProt O62664); assay: inhibition of cyclo-oxygenase (12-HHT or prostaglandin E2 formed by calcium-ionophore stimulated bovine thrombocytes); details: Table 1, read-out: INHIBITION % Cyclooxygenase
T2 construct: formed by bovine thrombocytes following addition of calcium ionophore; endogenous in cells; host or cells: thrombocytes isolated from the supernatant of centrifuged bovine blood
T2 sequence (O62664 25-600): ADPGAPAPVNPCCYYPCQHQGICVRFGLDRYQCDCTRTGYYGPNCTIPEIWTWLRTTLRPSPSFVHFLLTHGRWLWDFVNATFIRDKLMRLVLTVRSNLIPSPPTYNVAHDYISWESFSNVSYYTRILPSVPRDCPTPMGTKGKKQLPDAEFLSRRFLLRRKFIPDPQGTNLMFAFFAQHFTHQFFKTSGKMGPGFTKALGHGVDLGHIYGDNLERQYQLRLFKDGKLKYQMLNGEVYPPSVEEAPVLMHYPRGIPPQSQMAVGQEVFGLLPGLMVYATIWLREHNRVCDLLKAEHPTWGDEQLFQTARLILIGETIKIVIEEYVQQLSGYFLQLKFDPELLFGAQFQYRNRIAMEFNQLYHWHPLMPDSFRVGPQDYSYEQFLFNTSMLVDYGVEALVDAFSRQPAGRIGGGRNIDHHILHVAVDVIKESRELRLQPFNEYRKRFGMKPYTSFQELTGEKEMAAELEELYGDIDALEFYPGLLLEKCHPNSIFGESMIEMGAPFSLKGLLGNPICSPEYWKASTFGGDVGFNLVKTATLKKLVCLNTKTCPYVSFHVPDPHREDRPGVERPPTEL
Method: The effectiveness of the compounds of the invention can be determined by means of the inhibition of 5-lipoxygenase or of cyclo-oxygenase. The research was carried out as follows:
In this test the 12-HHT amount of 12-hydroxyheptadecatriene acid or prostaglandin E2 amount formed by bovine thrombocytes following addition of calcium ionophore is determined by uv detection following HPLC separation. Following centrifuging of the bovine blood, the thrombocytes are isolated from the surnatant. The enzyme reaction and the isolation of the formed metabolites take place as when determining the 5-lipoxygenase inhibition, however the incubation time was one minute. The detection of 12 HHT following HPLC separation takes place at 232 nm.
Tables 1 and 2 list the test results for the compounds of the invention, The test substances were at concentrations of 10 μM.

5-lipoxygenase [2] = target: T1, 5-lipoxygenase; assay: inhibition of 5-lipoxygenase (LTB4 formed by calcium-ionophore stimulated bovine granulocytes); details: Table 1, 3,3 μM

Compound | inhibition at 10 µM (5-lipoxygenase [1]; Table 1) [%] | further results
Cc1c(-c2ccccc2)c(-c2ccccc2)c(CCC(=O)O)n1CC(C)(C)C |  | inhibition at 10 µM (5-lipoxygenase [1]; Table 2): 97%
O=C(O)CCc1c(-c2cccc(Cl)c2)c(-c2ccccc2)c2n1CCC2 | 89 | 
O=C(O)CCc1c(-c2ccc(Cl)cc2)c(-c2ccccc2)c2n1CCC2 | 98 | 
COc1ccc(-c2c(-c3ccccc3)c3n(c2CCC(=O)O)CCC3)cc1 | 91 | 
O=C(O)CCc1c(-c2ccc(Oc3ccccc3)cc2)c(-c2ccccc2)c2n1CCC2 | 98 | inhibition at 10 µM (cyclo-oxygenase): 70%
CCCCn1c(C)c(-c2ccccc2)c(-c2ccccc2)c1CCC(=O)O |  | inhibition at 10 µM (5-lipoxygenase [1]; Table 2): 94%
CCCCCn1c(C)c(-c2ccccc2)c(-c2ccccc2)c1CCC(=O)O |  | inhibition at 10 µM (5-lipoxygenase [1]; Table 2): 99%
CCCCCCn1c(C)c(-c2ccccc2)c(-c2ccccc2)c1CCC(=O)O |  | inhibition at 10 µM (5-lipoxygenase [1]; Table 2): 99%
CC1(C)Cc2c(-c3ccccc3)c(-c3ccc(Oc4ccccc4)cc3)c(CCC(=O)O)n2C1 [3-(2,2-dimethyl-6-(4-phenoxyphenyl)-7-phenyl-2,3-dihydro-1H-pyrrolizine-5-yl) propionic acid] |  | inhibition at 3 µM (5-lipoxygenase [2]): 98%
CC1(C)Cc2c(C=CC(=O)O)c(-c3ccccc3)c(-c3ccccc3)n2C1 [CHCHCO2 H, Phenyl, Phenyl, CH3, CH3] | 91 | 
CCCCCCc1c(-c2ccccc2)c2n(c1C=CC(=O)O)CCC2 [Phenyl, C6 H13, CHCHCO2 H, H, H, 3-(6-(n-HEXYL)-7-PHENYL-2,3-DIHYDRO-1h-PYRROLIZINE-5-YL)-ACRYLIC ACID] | 82 | 
CC1(C)Cc2c(-c3ccccc3)c(-c3ccccc3)c(CCC(=O)O)n2C1 [Phenyl, Phenyl, (CH2)2 CO2 H, CH3, CH3] | 91 | inhibition at 10 µM (cyclo-oxygenase): 97%
CC1(C)Cc2c(-c3ccccc3)c(-c3ccccc3)c(CC(=O)O)n2C1 [Phenyl, Phenyl, CH2 CO2 H, CH3, CH3, (2,2-dimethyl-6,7-diphenyl-2,3-dihydro-1H-pyrrolizine-5-yl)-acetic acid] | 94 | inhibition at 10 µM (cyclo-oxygenase): 99%
O=C(O)Cc1c(-c2ccccc2)c(-c2ccccc2)c2n1CCC2 [Phenyl, Phenyl, CH2 CO2 H, H, H] |  | inhibition at 10 µM (cyclo-oxygenase): 91%
Cc1ccc(-c2c(-c3ccccc3)c3n(c2CCC(=O)O)CCC3)cc1 [Phenyl, p-Tolyl, (CH2)2 CO2 H, H, H] | 92 | 

The next lines start with results.

inhibition at 10 µM (5-lipoxygenase [1]; Table 1) [%] | Compound | further results
93 | CC1(C)Cc2c(CCC(=O)O)c(-c3ccccc3)c(-c3ccccc3)n2C1 [(CH2)2 CO2 H, Phenyl, Phenyl, CH3, CH3] | 
86 | O=C(O)CCCCc1c(-c2ccccc2)c(-c2ccccc2)n2c1CCC2 [(CH2)4 CO2 H, Phenyl, Phenyl, H, H] | 
96 | CC1(C)Cc2c(CCCCCC(=O)O)c(-c3ccccc3)c(-c3ccccc3)n2C1 [(CH2)5 CO2 H, Phenyl, Phenyl, CH3, CH3] | 
86 | O=C(O)CCCCCc1c(-c2ccccc2)c(-c2ccccc2)n2c1CCC2 [(CH2)5 CO2 H, Phenyl, Phenyl, H, H] | 
82 | O=C(O)CCCCc1c(-c2ccccc2)c2n(c1-c1ccccc1)CCC2 [Phenyl, (CH2)4 CO2 H, Phenyl, H, H] | 
80 | O=C(O)CCCCCc1c(-c2ccccc2)c2n(c1-c1ccccc1)CCC2 [Phenyl, (CH2)5 CO2 H, Phenyl, H, H] | 
80 | O=C(O)/C=C/c1c(-c2ccccc2)c(-c2ccccc2)c2n1CCC2 [Phenyl, Phenyl, CHCHCO2 H, H, H] | 
94 | O=C(O)CCc1c(-c2cccc3ccccc23)c(-c2ccccc2)c2n1CCC2 [Phenyl, α-naphthyl, (CH2)2 CO2 H, H, H] | 
